Reference: ChEMBL document CHEMBL1201862, “PubChem BioAssay data set” (2004)
Activity calls are given as the source filed them.

How the values were obtained:
[1] = microbe, parasite or virus in culture; type: functional; details: Mycobacterium tuberculosis
[2] = biological target: T1, Histone-lysine N-methyltransferase NSD2 (Homo sapiens, UniProt O96028); type: biochemical
T1 sequence (O96028 whole entry): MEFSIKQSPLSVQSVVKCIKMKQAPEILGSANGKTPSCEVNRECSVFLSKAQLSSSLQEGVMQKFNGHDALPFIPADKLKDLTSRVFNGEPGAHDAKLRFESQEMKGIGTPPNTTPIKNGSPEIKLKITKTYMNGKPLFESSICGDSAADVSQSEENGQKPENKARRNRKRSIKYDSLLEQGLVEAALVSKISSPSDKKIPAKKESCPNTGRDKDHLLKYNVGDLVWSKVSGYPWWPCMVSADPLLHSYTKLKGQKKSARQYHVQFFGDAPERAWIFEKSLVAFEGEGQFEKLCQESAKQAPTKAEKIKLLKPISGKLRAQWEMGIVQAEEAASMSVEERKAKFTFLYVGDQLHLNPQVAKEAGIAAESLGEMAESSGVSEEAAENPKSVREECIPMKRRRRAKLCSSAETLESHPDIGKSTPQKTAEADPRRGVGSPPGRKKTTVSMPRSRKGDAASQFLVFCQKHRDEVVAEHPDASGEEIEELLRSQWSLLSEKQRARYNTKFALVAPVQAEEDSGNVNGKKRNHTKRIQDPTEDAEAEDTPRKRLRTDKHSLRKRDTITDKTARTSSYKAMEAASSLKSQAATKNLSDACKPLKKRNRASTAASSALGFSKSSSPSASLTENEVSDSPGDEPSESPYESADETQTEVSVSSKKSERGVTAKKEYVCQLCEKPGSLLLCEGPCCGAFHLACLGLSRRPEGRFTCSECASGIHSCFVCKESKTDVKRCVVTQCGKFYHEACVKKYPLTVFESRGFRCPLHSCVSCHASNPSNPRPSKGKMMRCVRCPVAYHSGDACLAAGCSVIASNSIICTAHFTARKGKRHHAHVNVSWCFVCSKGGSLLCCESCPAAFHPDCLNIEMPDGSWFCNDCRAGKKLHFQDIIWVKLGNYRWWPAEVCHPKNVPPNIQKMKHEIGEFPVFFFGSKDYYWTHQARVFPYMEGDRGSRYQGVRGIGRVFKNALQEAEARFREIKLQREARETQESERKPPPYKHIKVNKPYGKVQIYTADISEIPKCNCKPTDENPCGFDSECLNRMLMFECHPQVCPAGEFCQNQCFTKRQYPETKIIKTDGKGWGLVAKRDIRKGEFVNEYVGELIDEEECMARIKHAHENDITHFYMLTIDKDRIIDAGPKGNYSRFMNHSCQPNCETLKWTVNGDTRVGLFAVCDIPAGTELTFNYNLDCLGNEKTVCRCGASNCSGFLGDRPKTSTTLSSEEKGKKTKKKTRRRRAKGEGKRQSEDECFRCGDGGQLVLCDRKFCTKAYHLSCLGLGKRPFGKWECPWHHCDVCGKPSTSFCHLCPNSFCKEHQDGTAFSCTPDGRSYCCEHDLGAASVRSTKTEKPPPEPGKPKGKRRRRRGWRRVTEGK

[3] = biological target: T2, Microphthalmia-associated transcription factor (Homo sapiens, UniProt O75030); assay: TRPM1 promoter luciferase signal decrease, dose response, MITF inhibitor project, cell-based, SK-MEL-5, cherry-picked, set 3 (AID 493073); type: functional
T2 sequence (O75030 whole entry): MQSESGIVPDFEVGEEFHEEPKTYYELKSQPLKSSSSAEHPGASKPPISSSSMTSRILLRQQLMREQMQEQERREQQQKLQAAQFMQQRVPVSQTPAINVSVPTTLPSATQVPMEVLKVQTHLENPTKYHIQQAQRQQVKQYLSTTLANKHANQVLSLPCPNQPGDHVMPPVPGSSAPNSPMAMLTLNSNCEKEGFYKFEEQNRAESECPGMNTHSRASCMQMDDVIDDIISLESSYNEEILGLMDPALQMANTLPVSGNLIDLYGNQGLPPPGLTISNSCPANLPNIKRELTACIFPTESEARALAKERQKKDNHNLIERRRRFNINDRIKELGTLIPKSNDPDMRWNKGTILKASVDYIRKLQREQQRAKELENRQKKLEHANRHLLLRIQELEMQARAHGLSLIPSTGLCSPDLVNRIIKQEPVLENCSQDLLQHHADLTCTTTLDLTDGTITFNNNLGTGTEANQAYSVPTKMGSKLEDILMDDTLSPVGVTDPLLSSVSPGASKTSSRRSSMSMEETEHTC

A-375 = assay: MITF: Counter assay: A375 proliferation Measured in Cell-Based System Using Plate Reader - 2084-03_Inhibitor_Dose_DryPowder_Activity. [Related pubchem assays (depositor defined):AID488944]; type: functional; details: Homo sapiens
Escherichia coli = assay: microbe, parasite or virus in culture
Procathepsin L = Procathepsin L (Homo sapiens, UniProt P07711); assay: cathepsin L inhibitors, dose response, counter-screen for M1/M17 aminopeptidase inhibitor project, biochemical, QFRET, 1536-well (AID 2214)
Procathepsin L, sequence (P07711 whole entry): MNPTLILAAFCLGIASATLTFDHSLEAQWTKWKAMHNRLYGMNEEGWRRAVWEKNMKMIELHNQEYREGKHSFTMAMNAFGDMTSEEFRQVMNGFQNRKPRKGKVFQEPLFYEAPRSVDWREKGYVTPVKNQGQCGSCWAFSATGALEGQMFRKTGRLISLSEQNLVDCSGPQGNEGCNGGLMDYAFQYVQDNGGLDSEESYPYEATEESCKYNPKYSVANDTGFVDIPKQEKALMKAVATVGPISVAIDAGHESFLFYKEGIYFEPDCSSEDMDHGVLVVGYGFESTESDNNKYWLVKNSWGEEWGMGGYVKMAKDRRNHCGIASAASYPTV

Leucine aminopeptidase = biological target: T3, Leucine aminopeptidase (Plasmodium falciparum 3D7, UniProt Q8IL11); assay: P. falciparum M17LAP inhibitors, primary screen, biochemical, fluorogenic H-Leu-NHMec substrate, 1536-well (AID 1619); type: functional
T3 sequence (Q8IL11 whole entry): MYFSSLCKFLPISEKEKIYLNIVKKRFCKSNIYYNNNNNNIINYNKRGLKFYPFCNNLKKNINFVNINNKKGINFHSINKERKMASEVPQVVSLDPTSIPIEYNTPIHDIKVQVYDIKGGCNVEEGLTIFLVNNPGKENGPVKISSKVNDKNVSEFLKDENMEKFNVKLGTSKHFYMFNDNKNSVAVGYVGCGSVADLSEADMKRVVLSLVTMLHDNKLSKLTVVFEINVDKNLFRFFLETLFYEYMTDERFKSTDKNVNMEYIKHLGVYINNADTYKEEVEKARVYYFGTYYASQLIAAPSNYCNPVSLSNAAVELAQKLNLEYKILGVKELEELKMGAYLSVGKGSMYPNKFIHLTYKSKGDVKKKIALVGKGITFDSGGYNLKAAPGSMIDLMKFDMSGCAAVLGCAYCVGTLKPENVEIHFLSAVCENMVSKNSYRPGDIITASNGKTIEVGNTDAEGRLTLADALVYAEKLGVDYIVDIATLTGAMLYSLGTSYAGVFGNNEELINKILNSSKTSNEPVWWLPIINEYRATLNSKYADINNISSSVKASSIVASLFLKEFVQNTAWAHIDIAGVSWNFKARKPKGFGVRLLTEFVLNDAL

Aspartyl aminopeptidase = Aspartyl aminopeptidase (Plasmodium falciparum 3D7, UniProt Q8I2J3); assay: Counterscreen for inhibitors of M1 and M17 aminopeptidases: QFRET-based biochemical high throughput dose response assay for inhibitors of the Plasmodium falciparum M18 Aspartyl Aminopeptidase (PFM18AAP). [Related PubChem assays: 1619 (Screening assay (M17LAP inhibitors).), 1445 (Screening assay (M1AAP inhibitors).)]
Aspartyl aminopeptidase, sequence (Q8I2J3 whole entry): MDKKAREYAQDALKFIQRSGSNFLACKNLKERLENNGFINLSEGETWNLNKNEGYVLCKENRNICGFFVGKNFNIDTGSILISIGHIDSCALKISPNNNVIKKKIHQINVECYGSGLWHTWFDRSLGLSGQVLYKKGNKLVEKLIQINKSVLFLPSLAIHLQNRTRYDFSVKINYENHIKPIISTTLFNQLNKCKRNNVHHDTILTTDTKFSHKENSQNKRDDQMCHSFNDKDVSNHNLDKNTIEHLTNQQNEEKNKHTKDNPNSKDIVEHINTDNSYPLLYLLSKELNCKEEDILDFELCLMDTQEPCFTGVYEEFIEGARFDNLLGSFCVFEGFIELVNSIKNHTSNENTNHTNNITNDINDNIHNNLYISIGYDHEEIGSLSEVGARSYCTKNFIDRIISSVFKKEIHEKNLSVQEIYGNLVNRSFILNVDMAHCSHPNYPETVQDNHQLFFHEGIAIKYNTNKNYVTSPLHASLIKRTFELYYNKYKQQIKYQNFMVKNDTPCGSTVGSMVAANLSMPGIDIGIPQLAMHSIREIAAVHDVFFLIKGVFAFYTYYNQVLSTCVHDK

[4] = biological target: G-protein coupled receptor 55 (Homo sapiens, UniProt Q9Y2T6); assay: GPR55 antagonists blocking LPI-driven arrestin recruitment, primary screen, imaging, U2OS, beta-arrestin-GFP, LPI agonist (AID 2013); type: functional;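 further: antagonist potency measured as reduced agonist-driven arrestin aggregation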
G-protein coupled receptor 55, sequence (Q9Y2T6 whole entry): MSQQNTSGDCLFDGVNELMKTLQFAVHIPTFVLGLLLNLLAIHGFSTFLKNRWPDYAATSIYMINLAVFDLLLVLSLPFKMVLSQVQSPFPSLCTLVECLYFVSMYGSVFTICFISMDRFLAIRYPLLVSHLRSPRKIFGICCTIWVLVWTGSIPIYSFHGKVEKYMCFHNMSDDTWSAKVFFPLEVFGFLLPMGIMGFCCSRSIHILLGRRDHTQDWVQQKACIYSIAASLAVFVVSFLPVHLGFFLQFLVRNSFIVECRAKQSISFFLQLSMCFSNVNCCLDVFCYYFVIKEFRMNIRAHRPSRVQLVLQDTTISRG

[5] = biological target: E3 ubiquitin-protein ligase Mdm2 (Homo sapiens, UniProt Q00987); assay: enhancers of MDM2-luciferase reporter signal, concentration-effect titration, project on inhibitors of MDM2 ubiquitin ligase, cellular assay, luminescent readout, 384-well plate format (AID 1394); type: functional;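 further: MDM2 E3 inhibitors raise luminescence so EC50 is for signal enhancement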
E3 ubiquitin-protein ligase Mdm2, sequence (Q00987 whole entry): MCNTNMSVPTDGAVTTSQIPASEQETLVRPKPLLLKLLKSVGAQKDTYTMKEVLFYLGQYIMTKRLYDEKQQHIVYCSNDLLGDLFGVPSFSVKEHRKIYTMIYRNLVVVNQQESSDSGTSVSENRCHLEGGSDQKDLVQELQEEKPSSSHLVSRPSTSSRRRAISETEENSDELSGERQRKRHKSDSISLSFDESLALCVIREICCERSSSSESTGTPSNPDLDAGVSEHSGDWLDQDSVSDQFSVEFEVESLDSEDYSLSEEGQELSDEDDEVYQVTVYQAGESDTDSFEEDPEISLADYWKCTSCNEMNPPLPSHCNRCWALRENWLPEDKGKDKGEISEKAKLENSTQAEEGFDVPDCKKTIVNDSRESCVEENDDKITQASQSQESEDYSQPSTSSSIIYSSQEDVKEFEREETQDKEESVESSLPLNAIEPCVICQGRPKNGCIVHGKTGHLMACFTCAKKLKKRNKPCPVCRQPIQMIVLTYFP

[6] = cytotoxicity in HEK-293T NF-kB-Luc cells, dose response, cytotoxicity control for B/T-cell NF-kB inhibitor project, cell-based, uHTS hits (AID 489019); type: functional;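 further: IC50 reflects cytotoxicity as loss of cell viability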
Jurkat [7] = assay: antigen receptor-induced NF-kB inhibitors, dose response, Jurkat, luciferase reporter, luminescence, B- and T-cell (AID 489004); type: functional, cell-based; details: Homo sapiens;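 further: NF-kB luciferase reporter Jurkat cells stimulated with PMA plus ionomycin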
Beta-galactosidase = Beta-galactosidase (Escherichia coli, UniProt Q8VNN2); assay: PubChem AID 485352; type: functional
Beta-galactosidase, sequence (Q8VNN2 whole entry): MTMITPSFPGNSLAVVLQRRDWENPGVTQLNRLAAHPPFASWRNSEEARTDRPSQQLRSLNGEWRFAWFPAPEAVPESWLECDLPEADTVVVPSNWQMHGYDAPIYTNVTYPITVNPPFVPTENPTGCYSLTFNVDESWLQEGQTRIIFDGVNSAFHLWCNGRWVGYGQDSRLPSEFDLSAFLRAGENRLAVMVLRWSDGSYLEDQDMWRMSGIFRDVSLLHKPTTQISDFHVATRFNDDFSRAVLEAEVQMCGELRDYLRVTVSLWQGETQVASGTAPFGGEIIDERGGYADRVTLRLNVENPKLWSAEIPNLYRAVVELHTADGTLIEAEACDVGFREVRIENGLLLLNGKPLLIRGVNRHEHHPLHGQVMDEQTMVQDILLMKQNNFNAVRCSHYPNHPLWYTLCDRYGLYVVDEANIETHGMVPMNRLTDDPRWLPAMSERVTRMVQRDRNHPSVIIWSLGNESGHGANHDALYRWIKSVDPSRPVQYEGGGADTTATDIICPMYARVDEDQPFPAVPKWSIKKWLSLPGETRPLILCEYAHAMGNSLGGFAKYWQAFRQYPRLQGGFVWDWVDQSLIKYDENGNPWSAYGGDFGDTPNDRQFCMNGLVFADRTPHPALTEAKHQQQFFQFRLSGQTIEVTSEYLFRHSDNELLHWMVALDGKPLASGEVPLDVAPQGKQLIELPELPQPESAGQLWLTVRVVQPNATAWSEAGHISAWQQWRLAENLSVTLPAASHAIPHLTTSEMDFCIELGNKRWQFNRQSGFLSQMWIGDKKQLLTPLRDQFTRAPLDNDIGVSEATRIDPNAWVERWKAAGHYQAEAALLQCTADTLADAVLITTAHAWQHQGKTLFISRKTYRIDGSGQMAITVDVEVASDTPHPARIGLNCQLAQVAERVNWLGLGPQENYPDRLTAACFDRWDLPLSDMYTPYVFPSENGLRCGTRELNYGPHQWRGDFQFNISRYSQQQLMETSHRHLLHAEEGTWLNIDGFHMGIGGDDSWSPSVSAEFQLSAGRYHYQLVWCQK

INS1 = assay: beta cell apoptosis inhibitors, cytokine rescue, dose response, luminescence, retest (AID 449756); type: functional, cell-based; details: Rattus norvegicus;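 further: cell death triggered by IL-1 beta plus TNF-alpha plus IFN-gamma mixture; protective hits raise ATP signal compared with cytokine alone wells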
[8] = biological target: T4, Type-1 angiotensin II receptor (Homo sapiens, UniProt P30556); assay: AT1 receptor antagonists, dose response, selectivity assay for APJ receptor antagonist project, cell-based, uHTS hits (AID 463214); type: functional;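 further: antagonist potency against angiotensin II stimulated AT1 response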
T4 sequence (P30556 whole entry): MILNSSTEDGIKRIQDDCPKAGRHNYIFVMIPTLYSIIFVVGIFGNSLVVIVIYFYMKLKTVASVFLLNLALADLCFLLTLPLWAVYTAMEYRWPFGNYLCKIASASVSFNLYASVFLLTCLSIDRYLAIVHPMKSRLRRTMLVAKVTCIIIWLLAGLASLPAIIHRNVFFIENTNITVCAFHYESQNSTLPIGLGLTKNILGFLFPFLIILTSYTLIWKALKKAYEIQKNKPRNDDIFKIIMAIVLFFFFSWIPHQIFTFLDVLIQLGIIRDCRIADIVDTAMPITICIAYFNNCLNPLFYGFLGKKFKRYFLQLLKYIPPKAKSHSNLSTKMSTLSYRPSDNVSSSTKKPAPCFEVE

Paired box protein Pax-8 = Paired box protein Pax-8 (Homo sapiens, UniProt Q06710); assay: inhibitors of PAX8-driven TPO luciferase reporter, dose response, RMG-I cells, cherry-pick (AID 687027); type: functional, cell-based;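 further: luciferase reporter driven by Pax8 target thyroperoxidase promoter measured by SteadyGlo luminescence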
Paired box protein Pax-8, sequence (Q06710 whole entry): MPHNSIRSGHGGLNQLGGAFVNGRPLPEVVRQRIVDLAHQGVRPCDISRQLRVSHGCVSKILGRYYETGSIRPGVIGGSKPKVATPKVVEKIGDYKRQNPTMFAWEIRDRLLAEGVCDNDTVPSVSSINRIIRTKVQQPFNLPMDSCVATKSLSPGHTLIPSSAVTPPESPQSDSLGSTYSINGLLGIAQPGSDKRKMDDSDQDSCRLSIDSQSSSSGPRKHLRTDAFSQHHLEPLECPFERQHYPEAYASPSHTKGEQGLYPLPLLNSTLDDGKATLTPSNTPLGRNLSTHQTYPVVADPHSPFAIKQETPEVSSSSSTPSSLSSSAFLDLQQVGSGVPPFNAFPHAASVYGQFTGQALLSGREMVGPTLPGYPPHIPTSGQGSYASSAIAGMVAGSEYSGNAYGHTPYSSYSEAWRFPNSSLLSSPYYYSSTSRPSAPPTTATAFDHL

HEK293 [9] = assay: cytotoxicity in HEK293T NF-kB-Luc cells, SAR follow-up, cytotoxicity control for NF-kB activator project, cell-based, resazurin fluorescence (AID 493251); type: functional; details: Homo sapiens
HEK293 [10] = assay: SAR Analysis of small molecule inhibitors of T-cell specific antigen receptor-induced NF-kB activation in a HEK-293T cell line using a luminescence assay - Set 2. [Related pubchem assays (depositor defined):AID435003, AID435012, AID489026]; type: functional, cell-based; details: Homo sapiens
Jurkat [11] = assay: SAR Analysis of small molecule inhibitors of T-cell specific antigen receptor-induced NF-kB activation in a Jurkat cell line using a luminescence assay - Set 2. [Related pubchem assays (depositor defined):AID435003, AID435012, AID465]; type: functional, cell-based; details: Homo sapiens
Candida albicans = assay: reversal of fluconazole resistance in C. albicans, dose response, CaCi-2 strain, Alamar Blue, dry powder, set 3 (AID 488907); type: functional, organism-based
[12] = growth suppression of PTEN-null colon cells, dose response, cell-based, HCT116 PTEN knockout (AID 1047); type: functional;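 further: HCT116 colon tumor cells with PTEN knocked out; cells exposed to compound for 60 hours before readout; potency for loss of cell viability measured by luminescence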
[13] = growth suppression of beta-catenin-knockout colon cells, dose response, cell-based, HCT116, human colon tumor (AID 1045); type: functional;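 further: HCT116 colon tumor cells with beta catenin knocked out; cells exposed to compound for 60 hours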
HEK293 [14] = assay: cells; details: Homo sapiens
HEK293 [15] = assay: cells; details: Homo sapiens; remark: listed apart in the source

In the case of `CC1C/C(=C\c2cccnc2)C(=O)/C(=C/c2cccnc2)C1` (centres undefined), the CC50 [1] is reported as 15.3 µM (active), the AC50 [2] is reported as 19 µM (active) and the AC50 [3] is reported as 2.66 µM (active). For the same compound, the AC50 (A-375) was 21.5 µM (active).
In the case of `COc1ccc2nc(SCC(=O)Nc3cc(OC)c(OC)cc3C(=O)O)c(C)cc2c1`, the AC50 (Escherichia coli) is reported as 27.6 µM (active), the IC50 (Procathepsin L) is reported as > 59.6 µM (not active) and the IC50 (Leucine aminopeptidase) is reported as < 1 µM (active). The IC50 (Aspartyl aminopeptidase) was > 73.5 µM (not active).
With `C=C1C(=O)O[C@@H]2C[C@@H](C)[C@@H]3C=CC(=O)[C@@]3(C)[C@@H](OC(C)=O)[C@H]12` [ANGUSTIBALIN] the IC50 [4] was 4.49 µM (active), the EC50 [5] was 7.68 µM (not active) and the IC50 [6] was > 80 µM (inactive). The IC50 (Jurkat [7]) was 0.99 µM (active), the EC50 (Beta-galactosidase) was > 40 µM (inactive) and the AC50 (INS1) was 2.13 µM (active). For the same compound, the IC50 [8] was 22 µM (not active) and the AC50 (Paired box protein Pax-8) was 0.742 µM (active).
For `CCOc1ccc(-c2nc(CS(=O)(=O)CC(=O)NCc3ccc(F)cc3)c(C)o2)cc1`, the IC50 (HEK293 [9]) was > 80 µM (inactive), the IC50 (HEK293 [10]) was > 80 µM (inactive) and the IC50 (Jurkat [11]) was > 79 µM (inactive).
For `N#Cc1cccnc1N1CCN(C(=O)c2ccc(Cl)cc2)CC1`, the AC50 (Candida albicans) was 0.611 µM (active).
For `CC1=CC(C)(C)Nc2ccc(OC(=O)CCN3C(=O)c4ccccc4C3=O)cc21`, the EC50 [12] was 10.8 µM (active), the EC50 [13] was 6.3 µM (active) and the EC50 (HEK293 [14]) was > 59.6 µM (inactive). The EC50 (HEK293 [15]) was > 59.6 µM (inactive).
